Laboratory results as given in article PMC11178787, “Development of a natural product optimization strategy for inhibitors against MraY, a promising antibacterial target” (Nature Communications, 2024).
In brackets after ≈: the same amount, converted by molar mass. Like-named read-outs stand apart in the source and are kept apart here.

What was measured:
Assay in all cases: microbe, parasite or virus in culture
[1] = system: T1, E. faecalis(VRE) ATCC 51299; parameters: CLSI broth microdilution MIC in MHB-II, single trial; details: Enterococcus faecalis, 18 h
T1 construct: ATCC 51299 (VRE)
Description: (§1) MICs were determined by a microdilution broth method as recommended by the CLSI with MHB-II. For MICs of stable analogues, a 2-fold dilution of each compound was prepared in DMSO at 100-fold of the final concentration. The strains were inoculated with 5 × 10^5 cfu/mL in 96-well plates (each 100 μL/well), and 1 μL of DMSO solutions of the samples were added (contained less than 1% DMSO). The plates were incubated at 37 °C for 18 h and then MICs were determined. MICs of stable analogues in Table 1 were the highest value in three trials. MICs in Supplementary Table 1 were determined in one trial.

E. faecium ATCC 35667 = system: T2, E. faecium ATCC 35667; parameters: CLSI broth microdilution MIC in MHB-II, single trial; details: Enterococcus faecium, ATCC35667, 18 h
T2 construct: ATCC 35667
Description: as §1

[2] = system: T3, E. faecium(VRE) ATCC 51559; parameters: CLSI broth microdilution MIC in MHB-II, single trial; details: Enterococcus faecium, 18 h
T3 construct: ATCC 51559 (VRE)
Description: as §1

[3] = system: T4, E. faecium(VRE) ATCC 51858; parameters: CLSI broth microdilution MIC in MHB-II, single trial; details: Enterococcus faecium, 18 h
T4 construct: ATCC 51858 (VRE)
Description: as §1

S. aureus ATCC 29213 = system: T5, S. aureus ATCC 29213; parameters: CLSI broth microdilution MIC in MHB-II, single trial; details: Staphylococcus aureus, ATCC29213, 18 h
T5 construct: ATCC 29213
Description: as §1

[4] = system: T6, Staphylococcus aureus MRSA JE2; parameters: CLSI broth microdilution MIC in MHB-II, single trial; details: 18 h
T6 construct: JE2 (MRSA)
Description: as §1

Enterococcus faecalis 21 = system: T7, Enterococcus faecalis 21; parameters: CLSI broth microdilution MIC in MHB-II; details: Enterococcus faecalis, 21, 18 h, read-out: MIC
T7 construct: 21
Description: as §1

Enterococcus faecalis 22 = system: T8, Enterococcus faecalis 22; parameters: CLSI broth microdilution MIC in MHB-II; details: Enterococcus faecalis, 22, 18 h, read-out: MIC
T8 construct: 22
Description: as §1

Enterococcus faecalis 23 = system: T9, Enterococcus faecalis 23; parameters: CLSI broth microdilution MIC in MHB-II; details: Enterococcus faecalis, 23, 18 h, read-out: MIC
T9 construct: 23
Description: as §1

Enterococcus faecalis 24 = system: T10, Enterococcus faecalis 24; parameters: CLSI broth microdilution MIC in MHB-II; details: Enterococcus faecalis, 24, 18 h, read-out: MIC
T10 construct: 24
Description: as §1

Enterococcus faecalis 25 = system: T11, Enterococcus faecalis 25; parameters: CLSI broth microdilution MIC in MHB-II; details: Enterococcus faecalis, 25, 18 h, read-out: MIC
T11 construct: 25
Description: as §1

Enterococcus faecalis 27 = system: T12, Enterococcus faecalis 27; parameters: CLSI broth microdilution MIC in MHB-II; details: Enterococcus faecalis, 27, 18 h, read-out: MIC
T12 construct: 27
Description: as §1

Enterococcus faecalis 29 = system: T13, Enterococcus faecalis 29; parameters: CLSI broth microdilution MIC in MHB-II; details: Enterococcus faecalis, 29, 18 h, read-out: MIC
T13 construct: 29
Description: as §1

Enterococcus faecium 10 = system: T14, Enterococcus faecium 10; parameters: CLSI broth microdilution MIC in MHB-II; details: Enterococcus faecium, 10, 18 h, read-out: MIC
T14 construct: 10
Description: as §1

Enterococcus faecium 1 = system: Enterococcus faecium 1; parameters: CLSI broth microdilution MIC in MHB-II; details: Enterococcus faecium, 1, 18 h, read-out: MIC
Description: as §1

Enterococcus faecium 2 = system: Enterococcus faecium 2; parameters: CLSI broth microdilution MIC in MHB-II; details: Enterococcus faecium, 2, 18 h, read-out: MIC
Description: as §1

Enterococcus faecium 5 = system: Enterococcus faecium 5; parameters: CLSI broth microdilution MIC in MHB-II; details: Enterococcus faecium, 5, 18 h, read-out: MIC
Description: as §1

Enterococcus faecium 9 = system: Enterococcus faecium 9; parameters: CLSI broth microdilution MIC in MHB-II; details: Enterococcus faecium, 9, 18 h, read-out: MIC
Description: as §1

[5] = system: T15, Staphylococcus aureus #1958; parameters: CLSI broth microdilution MIC in MHB-II; details: Staphylococcus aureus, 18 h, read-out: MIC
T15 construct: #1958
Description: as §1

[6] = system: T16, Staphylococcus aureus #2310; parameters: CLSI broth microdilution MIC in MHB-II; details: Staphylococcus aureus, 18 h, read-out: MIC
T16 construct: #2310
Description: as §1

[7] = system: T17, Staphylococcus aureus #2931; parameters: CLSI broth microdilution MIC in MHB-II; details: Staphylococcus aureus, 18 h, read-out: MIC
T17 construct: #2931
Description: as §1

[8] = system: T18, Staphylococcus aureus #2932; parameters: CLSI broth microdilution MIC in MHB-II; details: Staphylococcus aureus, 18 h, read-out: MIC
T18 construct: #2932
Description: as §1

[9] = system: T19, Staphylococcus aureus #2933; parameters: CLSI broth microdilution MIC in MHB-II; details: Staphylococcus aureus, 18 h, read-out: MIC
T19 construct: #2933
Description: as §1

[10] = system: T20, Staphylococcus aureus #2934; parameters: CLSI broth microdilution MIC in MHB-II; details: Staphylococcus aureus, 18 h, read-out: MIC
T20 construct: #2934
Description: as §1

[11] = system: T21, Staphylococcus aureus #2935; parameters: CLSI broth microdilution MIC in MHB-II; details: Staphylococcus aureus, 18 h, read-out: MIC
T21 construct: #2935
Description: as §1

SMILES	MIC (Enterococcus faecalis 21) [mg/L]	MIC (Enterococcus faecalis 22) [mg/L]	MIC (Enterococcus faecalis 23) [mg/L]	MIC (Enterococcus faecalis 24) [mg/L]	MIC (Enterococcus faecalis 25) [mg/L]	MIC (Enterococcus faecalis 27) [mg/L]	MIC (Enterococcus faecalis 29) [mg/L]	MIC (Enterococcus faecium 10) [mg/L]	MIC (Enterococcus faecium 1) [mg/L]	MIC (Enterococcus faecium 2) [mg/L]	MIC (Enterococcus faecium 5) [mg/L]	MIC (Enterococcus faecium 9) [mg/L]	MIC [5] [mg/L]	MIC [6] [mg/L]	MIC [7] [mg/L]	MIC [8] [mg/L]	MIC [9] [mg/L]	MIC [10] [mg/L]	MIC [11] [mg/L]	also measured
CCCCCCCCCCCCCCCC(=O)N[C@@H](CCCCN)C(=O)Nc1ccc(CN[C@H](C(=O)O)[C@H](O[C@@H]2O[C@H](CN)[C@@H](O)[C@H]2O)[C@H]2O[C@@H](n3ccc(=O)[nH]c3=O)[C@H](O)[C@@H]2O)cc1 [compound 5, analogue 5]	0.5 (≈ 0.543 µM)	0.13 (≈ 0.141 µM)	0.13 (≈ 0.141 µM)	0.25 (≈ 0.272 µM)	0.25 (≈ 0.272 µM)	0.25 (≈ 0.272 µM)	< 0.06	0.5 (≈ 0.543 µM)	1 (≈ 1.09 µM)	0.5 (≈ 0.543 µM)	0.5 (≈ 0.543 µM)	0.25 (≈ 0.272 µM)	1 (≈ 1.09 µM)	1 (≈ 1.09 µM)	0.25 (≈ 0.272 µM)	1 (≈ 1.09 µM)	0.5 (≈ 0.543 µM)	0.25 (≈ 0.272 µM)	1 (≈ 1.09 µM)	MIC ([1]; read-out: 5 MIC): 0.25 mg/L (≈ 0.272 µM); MIC (E. faecium ATCC 35667; read-out: 5 MIC): 0.25 mg/L (≈ 0.272 µM); MIC ([2]; read-out: 5 MIC): 0.25 mg/L (≈ 0.272 µM); MIC ([3]; read-out: 5 MIC): 1 mg/L (≈ 1.09 µM); MIC (S. aureus ATCC 29213; read-out: 5 MIC): 0.5 mg/L (≈ 0.543 µM); MIC ([4]; read-out: 5 MIC): 1 mg/L (≈ 1.09 µM)
CCCCCCCCCCCCCCCC(=O)N[C@@H](CCCNC(=N)N)C(=O)Nc1cccc(CN[C@H](C(=O)O)[C@H](O[C@@H]2O[C@H](CN)[C@@H](O)[C@H]2O)[C@H]2O[C@@H](n3ccc(=O)[nH]c3=O)[C@H](O)[C@@H]2O)c1 [compound 8, analogue 8]	1 (≈ 1.05 µM)	1 (≈ 1.05 µM)	0.25 (≈ 0.264 µM)	1 (≈ 1.05 µM)	0.5 (≈ 0.527 µM)	0.5 (≈ 0.527 µM)	0.13 (≈ 0.137 µM)	1 (≈ 1.05 µM)	1 (≈ 1.05 µM)	2 (≈ 2.11 µM)	1 (≈ 1.05 µM)	1 (≈ 1.05 µM)	2 (≈ 2.11 µM)	2 (≈ 2.11 µM)	1 (≈ 1.05 µM)	2 (≈ 2.11 µM)	1 (≈ 1.05 µM)	1 (≈ 1.05 µM)	2 (≈ 2.11 µM)	MIC ([1]; read-out: 8 MIC): 1 mg/L (≈ 1.05 µM); MIC (E. faecium ATCC 35667; read-out: 8 MIC): 0.5 mg/L (≈ 0.527 µM); MIC ([2]; read-out: 8 MIC): 1 mg/L (≈ 1.05 µM); MIC ([3]; read-out: 8 MIC): 2 mg/L (≈ 2.11 µM); MIC (S. aureus ATCC 29213; read-out: 8 MIC): 1 mg/L (≈ 1.05 µM); MIC ([4]; read-out: 8 MIC): 2 mg/L (≈ 2.11 µM)
C[C@H]1COc2c(N3CCN(C)CC3)c(F)cc3c(=O)c(C(=O)O)cn1c23 [levofloxacin]	0.5 (≈ 1.38 µM)	1 (≈ 2.77 µM)	1 (≈ 2.77 µM)	1 (≈ 2.77 µM)	0.5 (≈ 1.38 µM)	1 (≈ 2.77 µM)	0.5 (≈ 1.38 µM)	> 32	> 32	> 32	32 (≈ 88.6 µM)	> 32	> 32	> 32	16 (≈ 44.3 µM)	> 32	> 32	> 32	> 32	MIC ([1]; read-out: levofloxacin MIC): 1 mg/L (≈ 2.77 µM); MIC (E. faecium ATCC 35667; read-out: levofloxacin MIC): 4 mg/L (≈ 11.1 µM); MIC ([2]; read-out: levofloxacin MIC): 16 mg/L (≈ 44.3 µM); MIC ([3]; read-out: levofloxacin MIC): 4 mg/L (≈ 11.1 µM); MIC (S. aureus ATCC 29213; read-out: levofloxacin MIC): 0.13 mg/L (≈ 0.36 µM); MIC ([4]; read-out: levofloxacin MIC): 8 mg/L (≈ 22.1 µM)
